Reference: ChEMBL document CHEMBL1201862, “PubChem BioAssay data set” (2004)
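All cell lines were grown in 96-well plates and treated with compound for 48 hours. GI50 marks 50% less growth.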 Activity calls are given as the source filed them. Rule as the data show it: active = GI50 up to about 1.1 µM and inactive = higher.

Key:
Experiment in all cases: DTP human tumour cell line panel, 48 h
SN12C = tested on: SN12C
NCI-H23 = tested on: NCI-H23
HOP-62 = tested on: HOP-62
RXF 393 = tested on: RXF 393
MDA-MB-231 = tested on: MDA-MB-231
SK-MEL-5 = tested on: SK-MEL-5
NCI-H226 = tested on: NCI-H226
A498 = tested on: A498
KM12 = tested on: KM12
NCI-H460 = tested on: NCI-H460
CAKI-1 = tested on: CAKI-1
UO-31 = tested on: UO-31
MDA-MB-435 = tested on: MDA-MB-435
UACC-257 = tested on: UACC-257
HCT-116 = tested on: HCT-116
SNB-19 = tested on: SNB-19
OVCAR-4 = tested on: OVCAR-4
HCT-15 = tested on: HCT-15
NCI/ADR-RES = tested on: NCI/ADR-RES
UACC-62 = tested on: UACC-62

SMILES | GI50 (SN12C) | GI50 (NCI-H23) | GI50 (HOP-62) | GI50 (RXF 393) | GI50 (MDA-MB-231) | GI50 (SK-MEL-5) | GI50 (NCI-H226) | GI50 (A498) | GI50 (KM12) | GI50 (NCI-H460) | GI50 (CAKI-1) | GI50 (UO-31) | GI50 (MDA-MB-435) | GI50 (UACC-257) | GI50 (HCT-116) | GI50 (SNB-19) | GI50 (OVCAR-4) | GI50 (HCT-15) [µM] | GI50 (NCI/ADR-RES) | GI50 (UACC-62)
COc1ccc(-c2nnc3n(C)c4ccccc4n3c2=O)cc1 | 59 µM (inactive) | 40.1 µM (inactive) | 14.5 µM (inactive) | 31.1 µM (inactive) | 18.2 µM (inactive) | > 100 µM (inactive) | > 100 µM (inactive) | > 100 µM (inactive) | > 100 µM (inactive) | 38.3 µM (inactive) | 76 µM (inactive) | 42.8 µM (inactive) | > 100 µM (inactive) | > 100 µM (inactive) | 48.6 µM (inactive) | 91.8 µM (inactive) | > 100 µM (inactive) | > 100 | > 100 µM (inactive) | 
CN(C)CCCNC(=O)c1c(O)c2ccccc2[nH]c1=O | > 100 µM (inactive) | > 100 µM (inactive) | > 100 µM (inactive) | 95.7 µM (inactive) | > 100 µM (inactive) | > 100 µM (inactive) | > 100 µM (inactive) | > 100 µM (inactive) | > 100 µM (inactive) | > 100 µM (inactive) | 47.2 µM (inactive) | 14.5 µM (inactive) | > 100 µM (inactive) | > 100 µM (inactive) | > 100 µM (inactive) |  | > 100 µM (inactive) | > 100 | 88.5 µM (inactive) | > 100 µM (inactive)
CCCCC(Sc1cc(Cl)c(C)cc1S(=O)(=O)Nc1nc(N)n[nH]1)C(=O)OC (configuration not stated) | > 10 µM (inactive) | > 10 µM (inactive) | > 10 µM (inactive) | > 10 µM (inactive) | > 10 µM (inactive) | > 10 µM (inactive) | > 10 µM (inactive) | > 10 µM (inactive) | > 10 µM (inactive) | > 10 µM (inactive) | > 10 µM (inactive) |  | > 10 µM (inactive) | > 10 µM (inactive) | > 10 µM (inactive) | > 10 µM (inactive) | > 10 µM (inactive) | > 10 | > 10 µM (inactive) | > 10 µM (inactive)
CC1=NN(c2ccccc2)C(=O)/C1=C/c1ccc(O)cc1 | > 100 µM (inactive) | > 100 µM (inactive) |  | > 100 µM (inactive) | > 100 µM (inactive) | > 100 µM (inactive) | > 100 µM (inactive) | > 100 µM (inactive) | > 100 µM (inactive) | > 100 µM (inactive) | > 100 µM (inactive) |  | > 100 µM (inactive) | > 100 µM (inactive) | > 100 µM (inactive) | > 100 µM (inactive) | > 100 µM (inactive) | > 100 | > 100 µM (inactive) | > 100 µM (inactive)
NC(=O)C(=CNC(=S)Nc1ccccc1)C(N)=O | > 100 µM (inactive) | > 100 µM (inactive) | > 100 µM (inactive) | > 100 µM (inactive) | > 100 µM (inactive) | > 100 µM (inactive) | > 100 µM (inactive) | > 100 µM (inactive) | > 100 µM (inactive) | > 100 µM (inactive) | > 100 µM (inactive) |  | > 100 µM (inactive) | > 100 µM (inactive) | > 100 µM (inactive) | > 100 µM (inactive) | > 100 µM (inactive) | > 100 | > 100 µM (inactive) | > 100 µM (inactive)
O=[N+]([O-])c1cccc2nc3ccccc3c(NCCN(CCO)CCO)c12 | 0.00537 µM (active) | 0.00222 µM (active) | 0.00282 µM (active) | 0.00121 µM (active) | 0.00268 µM (active) | 0.00192 µM (active) | 0.00102 µM (active) | 0.00501 µM (active) | 0.00498 µM (active) | 0.000815 µM (active) | 0.0064 µM (active) | 0.0397 µM (active) | 0.00141 µM (active) |  | 0.00114 µM (active) | 0.00783 µM (active) | 0.00453 µM (active) | 0.0108 | 0.128 µM (active) | 0.00396 µM (active)
Cc1ccc(C(=O)Nc2ccc(CP(=O)(O)O)cc2)cc1NC(=O)Nc1cc(C(=O)Nc2ccc(CP(=O)(O)O)cc2)ccc1C | > 100 µM (inactive) | > 100 µM (inactive) | > 100 µM (inactive) | > 100 µM (inactive) | > 100 µM (inactive) | > 100 µM (inactive) | > 100 µM (inactive) | > 100 µM (inactive) | > 100 µM (inactive) | > 100 µM (inactive) | > 100 µM (inactive) | > 100 µM (inactive) | > 100 µM (inactive) | > 100 µM (inactive) | > 100 µM (inactive) |  | > 100 µM (inactive) | > 100 | > 100 µM (inactive) | > 100 µM (inactive)
